Measurements: patent US8013016B2, “Use of acetyl L-carnitine for the treatment of fibromyalgic syndrome” (Sigma-Tau Industrie Farmaceutiche Riunite S.p.A., priority 2004, dated 2011)

Key:
[1] = test system: patients with fibromyalgic syndrome; test: Same clinical trial: secondary clinical parameters assessed with visual analogue scales; format: in vivo, human; conditions: end of the treatment period (10 weeks), 1,500 mg/day; P<0.05
Procedure: (§1) A multicentre, randomized, placebo-controlled, double-blind clinical trial was conducted, the aim of which was to evaluate the efficacy of acetyl L-carnitine in patients with fibromyalgic syndrome.
Also monitored were additional secondary parameters which will be discussed later.
Acetyl L-carnitine was administered for a period of 10 consecutive weeks at a dose of 1,500 mg/day.
During the first two weeks it was administered at the dose of 500 mg by the intramuscular route (i.m.) and 500 mg (twice daily) by the oral route (os).
Over the following eight weeks acetyl L-carnitine was administered orally at doses of 500 mg three times daily.

[2] = test system: patients with fibromyalgic syndrome; test: Multicentre, randomized, placebo-controlled, double-blind clinical trial: evoked pain at ACR tender points (Pressure Threshold Meter algometer); format: in vivo, human; conditions: for Mean variation compared to baseline (evoked pain at ACR tender points, algometer): N = 42
Procedure: as §1
For the evaluation of the efficacy of the compound according to the present invention evoked pain was monitored (as measured with the “Pressure Threshold Meter” algometer) in the osteoarticular regions indicated by “The American College of Rheumatology” (ACR) as being “tender points” characteristic of fibromyalgia syndrome. [WOLFE F, SMYTHE H A, YUNUS M B, et al. The American College of Rheumatology Criteria for the classification of fibromyalgia: report of the multicenter criteria committee; Arthritis Rheum 1990; 33(2): 160-172].
The patients included in the trial were patients of either gender aged from 25 to 65 years, who matched up to the above-mentioned American College of Rheumatology diagnostic criteria for fibromyalgia syndrome.
The diagnostic criteria for fibromyalgic syndrome had to be confirmed by the presence of all four of the following conditions: • bilateral diffuse pain in the axial skeleton; • bilateral diffuse pain in the upper limbs; • bilateral diffuse pain in the lower limbs; • pain located in 11 or more of the 18 anatomical regions listed in the map of tender points (ACR tender points) evoked with a standardised pressure manoeuvre.
Patients with any one of the following conditions were not recruited into the trial: • presence of infections or inflammatory processes affecting the osteoarticular or tegumental apparatus; • history or presence of clinically important osteoarticular disease capable of confounding the evaluation of the study treatments (e.g. history of trauma); • previous orthopaedic surgery, spondyloarthrosis, connectivitis etc.; • clinical or laboratory evidence of dysthyroidism; • presence of systemic diseases (diabetes, kidney, cardiovascular and respiratory disease, psychiatric illness) or major pathological conditions capable of interfering with the evaluation of the study treatments; • continuous use of anti-inflammatory steroids during the last 3 months prior to the trial; • recent initiation of oestrogen-progestogen hormone replacement therapy (<1 year); • therapy with antidepressant drugs during the last 6 months prior to the trial; • therapy with non-steroidal anti-inflammatory drugs during the last 3 days prior to the trial; • therapy with analgesic drugs during the last 7 days prior to the trial; • participation in a clinical trial during the previous 6 months; • pregnant women, breastfeeding women, or women of childbearing age not adopting an adequate contraceptive method.
Acetyl L-carnitine was administered for a period of 10 consecutive weeks at a dose of 1,500 mg/day. […]

CC(=O)O[C@H](CC(=O)[O-])C[N+](C)(C)C [Acetyl L-carnitine, acetyl L-carnitine]
General well-being (visual analogue scale) [1]: statistically significant improvements
Mental health (visual analogue scale) [1]: statistically significant improvements
Physical health in general (visual analogue scale) [1]: statistically significant improvements
Improvement in pain evoked in the osteoarticular regions (ACR tender points) as compared to the control group ([2]; end of therapy (10 weeks), 1,500 mg/day, vs placebo): statistically significant improvement
Mean variation compared to baseline (evoked pain at ACR tender points, algometer) ([2]; visit 2 weeks, 1,500 mg/day (500 mg i.m. + 500 mg twice daily os), placebo 0.16 (0.39)): 0.24 (0.64)
Mean variation compared to baseline (evoked pain at ACR tender points, algometer) ([2]; visit 6 weeks, 1,500 mg/day (first 2 weeks i.m. + os, then 500 mg three times daily os), placebo 0.45 (0.57)): 0.55 (0.64)
Mean variation compared to baseline (evoked pain at ACR tender points, algometer) ([2]; visit 10 weeks (end of therapy), 1,500 mg/day, placebo 0.34 (0.66), P<0.05 Student's t-test): 0.71 (0.71)
